According to patent US7767685B2, “Adenosine A2B receptor antagonists” (King Pharmaceuticals Research and Development, Inc., priority 2006, dated 2010):

Columns and labels:
[1] = target: T1, human A2A adenosine receptors (Homo sapiens, UniProt P29274); test: Displacement of [3H]ZM241385 binding at human A2A adenosine receptors expressed in CHO cells; conditions: [3H]ZM241385 displacement, n = 3-6, geometric mean (95% confidence limits), read-out: Ki hA2A
T1 construct: expressed in transfected cells; host or cells: CHO cells (membranes)
T1 sequence (P29274 whole entry): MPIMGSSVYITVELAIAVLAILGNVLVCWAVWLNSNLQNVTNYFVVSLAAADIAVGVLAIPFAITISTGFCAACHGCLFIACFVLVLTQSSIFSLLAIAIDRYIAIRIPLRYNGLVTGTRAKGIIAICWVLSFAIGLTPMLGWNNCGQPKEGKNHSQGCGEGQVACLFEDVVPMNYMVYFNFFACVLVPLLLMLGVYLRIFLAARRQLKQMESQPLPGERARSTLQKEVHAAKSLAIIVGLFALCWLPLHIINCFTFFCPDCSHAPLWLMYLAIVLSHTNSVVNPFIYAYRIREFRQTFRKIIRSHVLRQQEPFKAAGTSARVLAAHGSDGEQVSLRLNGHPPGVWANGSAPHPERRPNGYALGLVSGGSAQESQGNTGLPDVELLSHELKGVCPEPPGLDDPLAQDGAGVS
Description: (§1) The human adenosine receptors have been transfected in CHO cells according with the method previously described by Klotz et al. (Naunyn-Schmied. Arch Pharm. 1998, 357: 1-9). Briefly, the cells are grown adherently and maintained in Dulbecco's Modified Eagles Medium with nutrient mixture F12 (DMEM/F12) without nucleosides, containing 10% fetal calf serum, penicillin (100 U/mL), streptomycin (100 μg/mL), L-glutamine (2 mM) and Geneticin (G418, 0.2 mg/ml) at 37° C. in 5% CO2/95% air. For membrane preparation the culture medium is removed and the cells are washed with phosphate-buffered saline and scraped off T75 flasks in ice-cold hypo tonic buffer (5 mM Tris HCl, 1 mM EDTA, pH 7.4). The cell suspension is homogenized with Polytron, the homogenate is spun for 10 min at 1000×g and the supernatant is then centrifuged for 30 min at 100,000×g. The membrane pellet is suspended in 50 mM Tris HCl buffer (pH 7.4) for A1 adenosine receptors, in 50 mM Tris HCl, 10 mM MgCl2 (pH 7.4) for A2A adenosine receptors, in 50 mM Tris HCl, 10 mM MgCl2, 1 mM EDTA (pH 7.4) for A2B and A3 adenosine receptors.
(§2) All new synthesized compounds have been tested to evaluate their affinity to human A1, A2A, A2B and A3 adenosine receptors. Displacement experiments of [^3H]-DPCPX to CHO cells transfected with the human recombinant A1 adenosine receptors are performed for 120 min at 25° C. incubating diluted membranes (50 μg of protein/assay) and at least 6-8 different concentrations of examined antagonists (Varani et al., Mol. Pharmacol., 2000, 57: 968-975). Non-specific binding is determined in the presence of 10 μM of CHA and this is always ≦10% of the total binding. Binding of [^3H]-ZM 241385 to CHO cells transfected with the human recombinant A2A adenosine receptors is performed using a suspension of membranes (50 μg of protein/assay) and at least 6-8 different concentrations of studied antagonists for an incubation time of 60 min at 4° C. Non-specific binding is determined in the presence of 1 μM ZM 241385 and is about 20% of total binding. Competition binding experiments of [^3H]-MRE 2029F20 to CHO cells transfected with the human recombinant A2B adenosine receptors are carried out incubating for 120 min at 4° C. diluted membranes (50 μg of protein/assay) and at least 6-8 different concentrations of examined compounds. Non-specific binding is defined as binding in the presence of 1 μM MRE 3029F20 and is about 25% of total binding. Competition binding experiments of [^3H]-MRE 3008F20 to CHO cells transfected with the human recombinant A3 adenosine receptors^5 are carried out incubating for 120 min at 4° C. diluted membranes (50 μg of protein/assay) and at least 6-8 different concentrations of examined ligands. Non-specific binding is defined as binding in the presence of 1 μM MRE 3008F20 and is about 25% of total binding. Bound and free radioactivity are separated by filtering the assay mixture through Whatman GF/B glass fiber filters using a Micro-Mate 196 cell harvester (Packard Instrument Co.). The filter bound radioactivity is counted on a Top Count (efficiency 57%) with Micro-Scint 20.
(§3) The protein concentration is determined according to a Bio-Rad method (Bradford, Anal Biochem. 1976, 72: 248-254) with bovine albumin as a standard reference. Inhibitory binding constant, Ki, values are calculated from those of IC50 according to Cheng & Prusoff equation (Biochem. Pharmacol 1973, 22: 3099-3108): Ki=IC50/(1+[C*]/KD*) where [C*] is the concentration of the radioligand and KD* its dissociation constant. A weighted non linear least-squares curve fitting program LIGAND (Munson et al., Anal. Biochem 1980, 107: 220-239) is used for computer analysis of inhibition experiments Data are expressed as geometric mean with 95% confidence limits in parentheses. Examples of Animal Models

[2] = target: T2, human A1 adenosine receptors (Homo sapiens, UniProt P30542); test: Displacement of [3H]DPCPX binding at human A1 adenosine receptors expressed in CHO cells; conditions: [3H]DPCPX displacement, n = 3-6, geometric mean (95% confidence limits), read-out: Ki hA1
T2 construct: expressed in transfected cells; host or cells: CHO cells (membranes)
T2 sequence (P30542 1-326): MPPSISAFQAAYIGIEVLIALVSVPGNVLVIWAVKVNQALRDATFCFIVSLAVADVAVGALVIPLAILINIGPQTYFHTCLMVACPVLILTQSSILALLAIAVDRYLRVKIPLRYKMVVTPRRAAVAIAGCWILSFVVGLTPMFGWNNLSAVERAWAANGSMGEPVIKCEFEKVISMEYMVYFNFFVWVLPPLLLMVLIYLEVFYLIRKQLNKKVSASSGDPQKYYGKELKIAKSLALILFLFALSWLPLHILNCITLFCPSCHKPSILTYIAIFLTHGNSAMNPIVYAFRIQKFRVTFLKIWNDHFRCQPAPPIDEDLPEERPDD
Description: as §1, §2, §3

Ki [1]	Ki [2]	melting point	Compound
> 1000 nM	> 1000 nM	> 300 °C	CCCn1c(=O)c2[nH]c(-c3cc(C)n(CC(=O)Nc4ccc(C)cc4)n3)nc2n(CCC)c1=O [Example 17, 2-[3-(2,6-Dioxo-1,3-dipropyl-2,3,6,7-tetrahydro-1H-purin-8-yl)-5-methyl-pyrazol-1-yl]-N-p-tolyl-acetamide]
> 1000 nM	> 1000 nM	298 to 299 °C	CCCn1c(=O)c2[nH]c(-c3nn(CC(=O)Nc4ccc(Cl)cc4)c(C)c3Br)nc2n(CCC)c1=O [Example 19, 2-[4-Bromo-3-(2,6-dioxo-1,3-dipropyl-2,3,6,7-tetrahydro-1H-purin-8-yl)-5-methyl-pyrazol-1-yl]-N-(4-chlorophenyl)-acetamide]
> 1000 nM	> 1000 nM	261 to 265 °C	CCCn1c(=O)c2[nH]c(-c3cc(C)n(CC(=O)Nc4ccc(C)c(C)c4)n3)nc2n(CCC)c1=O [Example 7, 2-[3-(2,6-Dioxo-1,3-dipropyl-2,3,6,7-tetrahydro-1H-purin-8-yl)-5-methyl-pyrazol-1-yl]-N-(3,4-dimethylphenyl)-acetamide]
> 1000 nM	480 nM	274 to 277 °C	CCCn1c(=O)c2[nH]c(-c3cc(C)n(CC(=O)Nc4cccc(OC)c4)n3)nc2n(CCC)c1=O [Example 14, 2-[3-(2,6-Dioxo-1,3-dipropyl-2,3,6,7-tetrahydro-1H-purin-8-yl)-5-methyl-pyrazol-1-yl]-N-(3-methoxylphenyl)-acetamide]
> 1000 nM	675 nM	304 to 307 °C	CCCn1c(=O)c2[nH]c(-c3cc(C)n(CC(=O)Nc4cccc(Cl)c4)n3)nc2n(CCC)c1=O [Example 15, 2-[3-(2,6-Dioxo-1,3-dipropyl-2,3,6,7-tetrahydro-1H-purin-8-yl)-5-methyl-pyrazol-1-yl]-N-(3-chlorophenyl)-acetamide]
> 1000 nM	> 1000 nM	298 °C	CCCn1c(=O)c2[nH]c(-c3cc(C)n(CC(=O)Nc4ccc(Cl)c(Cl)c4)n3)nc2n(CCC)c1=O [Example 16, 2-[3-(2,6-Dioxo-1,3-dipropyl-2,3,6,7-tetrahydro-1H-purin-8-yl)-5-methyl-pyrazol-1-yl]-N-(3,4-dichlorophenyl)-acetamide]
> 1000 nM	> 1000 nM	285 to 290 °C	CCCn1c(=O)c2[nH]c(-c3cc(C)n(CC(=O)Nc4ccc(OC)c(OC)c4)n3)nc2n(CCC)c1=O [Example 8, 2-[3-(2,6-Dioxo-1,3-dipropyl-2,3,6,7-tetrahydro-1H-purin-8-yl)-5-methyl-pyrazol-1-yl]-N-(3,4-dimethoxyphenyl)-acetamide]
> 1000 nM	140 nM	283 to 285 °C	CCCn1c(=O)c2[nH]c(-c3ccn(CC(=O)Nc4ccc(Cl)cc4)n3)nc2n(CCC)c1=O [Example 10, 2-[3-(2,6-Dioxo-1,3-dipropyl-2,3,6,7-tetrahydro-1H-purin-8-yl)-pyrazol-1-yl]-N-(4-chloro-phenyl)-acetamide]
> 1000 nM	> 1000 nM	268 to 271 °C	CCCn1c(=O)c2[nH]c(-c3cc(C)n(CC(=O)Nc4ccc(C(C)CC)cc4)n3)nc2n(CCC)c1=O (centres unmarked) [Example 12, 2-[3-(2,6-Dioxo-1,3-dipropyl-2,3,6,7-tetrahydro-1H-purin-8-yl)-5-methyl-pyrazol-1-yl]-N-(4-sec-butylphenyl)-acetamide]
> 1000 nM	> 1000 nM	286 to 289 °C	CCCn1c(=O)c2[nH]c(-c3cc(C)n(CC(=O)Nc4ccc(I)cc4)n3)nc2n(CCC)c1=O [Example 2, 2-[3-(2,6-Dioxo-1,3-dipropyl-2,3,6,7-tetrahydro-1H-purin-8-yl)-5-methyl-pyrazol-1-yl]-N-(4-iodophenyl)-acetamide]
> 1000 nM	500 nM	205 to 207 °C	CCCn1c(=O)c2[nH]c(-c3cc(C)n(CC(=O)Nc4ccc(F)cc4)n3)nc2n(CCC)c1=O [Example 5, 2-[3-(2,6-Dioxo-1,3-dipropyl-2,3,6,7-tetrahydro-1H-purin-8-yl)-5-methyl-pyrazol-1-yl]-N-(4-fluoro-phenyl)-acetamide]
> 1000 nM	350 nM	255 to 257 °C	CCCn1c(=O)c2[nH]c(-c3cc(C)n(CC(=O)Nc4ccccc4)n3)nc2n(CCC)c1=O [Example 1, 2-[3-(2,6-Dioxo-1,3-dipropyl-2,3,6,7-tetrahydro-1H-purin-8-yl)-5-methyl-pyrazol-1-yl]-N-phenyl-acetamide]
> 1000 nM	> 1000 nM	293 to 296 °C	CCCn1c(=O)c2[nH]c(-c3cc(C)n(CC(=O)Nc4ccc(OC)cc4)n3)nc2n(CCC)c1=O [Example 6, 2-[3-(2,6-Dioxo-1,3-dipropyl-2,3,6,7-tetrahydro-1H-purin-8-yl)-5-methyl-pyrazol-1-yl]-N-(4-methoxyphenyl)-acetamide]
> 1000 nM	> 1000 nM		CCCn1c(=O)c2[nH]c(-c3nn(CC(=O)Nc4ccc(Cl)cc4)c(C)c3Cl)nc2n(CCC)c1=O [Example 18, 2-[4-Chloro-3-(2,6-dioxo-1,3-dipropyl-2,3,6,7-tetrahydro-1H-purin-8-yl)-5-methyl-pyrazol-1-yl]-N-(4-chlorophenyl)-acetamide]
